According to ChEMBL document CHEMBL5614422, “Design, synthesis and biological evaluation of N-salicyloyl tryptamine derivatives as multifunctional neuroprotectants for the treatment of ischemic stroke” (Eur J Med Chem, 2024):
The source made the active and inactive calls. The calls are words filed in the database; no cut-off is given here.

Legend:
[1] = organism: Mus musculus; experiment: Antiinflammatory activity in MCAO-R induced 12 hrs fasted male C57BL/6J mouse model assessed as reduction in IL-18 level by ELISA method; type: functional, organism-based
[2] = test system: HT-22; experiment: Anti-ferroptotic activity in mouse HT-22 cells assessed as prevention of erastin-induced cell death at 1 to 10 uM by MTT assay; type: functional, cell-based; details: dose 1-10 µM
[3] = test system: HT-22; experiment: Anti-ferroptotic activity against OGD/R induced mouse HT-22 cells increase in GSH level at 10 uM; type: functional, cell-based
[4] = test system: Mus musculus; experiment: Neuroprotective activity against MCAO-R induced 12 hrs fasted male C57BL/6J mouse model assessed as improvement in brain tissue structure at 10 to 50 mg/kg, ip administered once a day for 7 days by H and E staining based analysis; type: functional, organism-based; details: dose 10-50 mg/kg, time 7.0 day
[5] = organism: Mus musculus; experiment: Antiinflammatory activity in MCAO-R induced 12 hrs fasted male C57BL/6J mouse model assessed as reduction in IL-6 level by ELISA method; type: functional, organism-based
[6] = test system: Mus musculus; experiment: Neuroprotective activity against MCAO-R induced 12 hrs fasted male C57BL/6J mouse model assessed as improvement in neuronal mortality at 10 to 50 mg/kg, ip administered once a day for 7 days by H and E staining based analysis; type: functional, organism-based; details: dose 10-50 mg/kg, time 7.0 day
[7] = test system: HT-22; experiment: Anti-apoptotic activity in OGD/R mouse HT-22 cells assessed as reduction in proportion of apoptic cells by annexin V-FITC and PI staining based flow cytometry analysis; type: functional, cell-based; details: dose 1-10 µM
[8] = target: T1, Nuclear factor erythroid 2-related factor 2 (Mus musculus) (UniProt Q60795); experiment: Activation of Nrf2 in OGD/R induced mouse HT-22 cells assessed as induction of Nrf2 nuclear translocation at 1 to 10 uM by immunofluorescence analysis; type: cell-based; details: filed as activator, dose 1-10 µM
T1 sequence (whole entry): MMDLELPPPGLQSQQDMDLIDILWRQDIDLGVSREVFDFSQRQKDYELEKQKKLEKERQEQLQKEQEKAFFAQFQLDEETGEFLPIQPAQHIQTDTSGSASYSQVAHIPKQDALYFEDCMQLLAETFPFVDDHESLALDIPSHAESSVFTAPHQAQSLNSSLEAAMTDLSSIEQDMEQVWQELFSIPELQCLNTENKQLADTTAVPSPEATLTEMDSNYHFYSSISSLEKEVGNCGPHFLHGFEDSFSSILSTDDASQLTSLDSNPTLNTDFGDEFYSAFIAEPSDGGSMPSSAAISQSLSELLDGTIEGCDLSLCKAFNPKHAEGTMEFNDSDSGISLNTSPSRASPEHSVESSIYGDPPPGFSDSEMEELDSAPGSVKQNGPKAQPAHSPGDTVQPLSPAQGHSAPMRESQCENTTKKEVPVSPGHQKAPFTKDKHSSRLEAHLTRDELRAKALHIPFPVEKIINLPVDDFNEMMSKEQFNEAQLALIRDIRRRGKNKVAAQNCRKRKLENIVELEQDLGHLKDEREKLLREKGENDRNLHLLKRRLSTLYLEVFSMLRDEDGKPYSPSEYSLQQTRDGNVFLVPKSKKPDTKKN

[9] = test system: HT-22; experiment: Antioxidant activity against OGD/R induced oxidative stress in mouse HT-22 cells assessed as reduction in ROS release level at 1 to 10 uM by DCFH-DA staining based flow cytometry analysis; type: functional, cell-based; details: dose 1-10 µM
[10] = Antioxidant activity assessed as free radical scavenging activity at 40 to 80 uM incubated in dark for 30 mins under shaking condition by DPPH assay; type: functional; details: dose 40-80 µM
[11] = test system: HT-22; experiment: Upregulation of GPX4 protein level in OGD/R induced mouse HT-22 cells at 1 to 10 uM by Western blot analysis; type: functional, cell-based; details: dose 1-10 µM
[12] = test system: HT-22; experiment: Anti-ferroptotic activity against OGD/R induced mouse HT-22 cells decrease in MDA level at 10 uM in presence of ML385; type: functional, cell-based
[13] = test system: Mus musculus; experiment: Neuroprotective activity against MCAO-R induced 12 hrs fasted male C57BL/6J mouse model assessed as decrease in S100 expression in CA3 by measuring decrease in fluorescence intensity administered once a day as ip dose for 7 days by immunofluorescence method; type: functional, organism-based; details: dose 10-50 mg/kg, time 7.0 day
[14] = test system: BV-2; experiment: Anti-inflammatory activity against OGD/R and erastin induced ferroptosis in mouse BV-2 cells assessed as inhibition of IL-6 production preincubated for 6 hrs followed by OGD addition and measured after 1 hr by ELISA method; type: functional, cell-based; details: dose 10-40 µM, time 7.0 hrs
[15] = test system: Mus musculus; experiment: Neuroprotective activity against MCAO-R induced 12 hrs fasted male C57BL/6J mouse model assessed as decrease in MDA level in cerebral ischemic tissue at 10 to 50 mg/kg, ip administered once a day for 7 days; type: functional, organism-based; details: dose 10-50 mg/kg, time 7.0 day
[16] = test system: Mus musculus; experiment: In vivo activation of Nrf2 pathway in MCAO-R induced 12 hrs fasted male C57BL/6J mouse model assessed as increase in GCLC expression level at 10 to 50 mg/kg, ip by Western blot analysis; type: functional, organism-based; details: dose 10-50 mg/kg
[17] = test system: Mus musculus; experiment: In vivo activation of Nrf2 pathway in MCAO-R induced 12 hrs fasted male C57BL/6J mouse model assessed as increase in HO-1 expression level at 10 to 50 mg/kg, ip by Western blot analysis; type: functional, organism-based; details: dose 10-50 mg/kg
[18] = test system: Mus musculus; experiment: In vivo activation of Nrf2 pathway in MCAO-R induced 12 hrs fasted male C57BL/6J mouse model assessed as increase in NQO1 expression level at 10 to 50 mg/kg, ip by Western blot analysis; type: functional, organism-based; details: dose 10-50 mg/kg
[19] = test system: HT-22; experiment: Upregulation of GCLC protein level in OGD/R induced mouse HT-22 cells at 1 to 10 uM by Western blot analysis; type: functional, cell-based; details: dose 1-10 µM
[20] = test system: HT-22; experiment: Cytoprotective activity against OGD/R induced mouse HT-22 cells assessed as inhibition of intracellular LDH release at 10 uM in presence of ML385; type: functional, cell-based
[21] = test system: Mus musculus; experiment: Neuroprotective activity against MCAO-R induced 12 hrs fasted male C57BL/6J mouse model assessed as decrease in S100 expression in DG by measuring decrease in fluorescence intensity administered once a day as ip dose for 7 days by immunofluorescence method; type: functional, organism-based; details: dose 10-50 mg/kg, time 7.0 day
[22] = test system: HT-22; experiment: Induction of morphological changes in OGD/R induced mouse HT-22 cells assessed as attenuation of cell shrinkage by microscopic based analysis; type: functional
[23] = test system: HT-22; experiment: Antioxidant activity against OGD/R induced oxidative stress in mouse HT-22 cells assessed as increase in SOD activity by absorbance based automatic microplate reader analysis; type: functional, cell-based
[24] = organism: Mus musculus; experiment: Antiinflammatory activity in MCAO-R induced 12 hrs fasted male C57BL/6J mouse model assessed as reduction in TNF-alpha level by ELISA method; type: functional, organism-based
[25] = test system: Mus musculus; experiment: Neuroprotective activity against MCAO-R induced 12 hrs fasted male C57BL/6J mouse model assessed as reduction in infarct volume at 25 mg/kg, ip for 7 days by TTC staining based analysis; type: functional, organism-based; details: time 7.0 day
[26] = test system: BV-2; experiment: Anti-inflammatory activity against OGD/R and erastin induced ferroptosis in mouse BV-2 cells assessed as inhibition of TNF-alpha production preincubated for 6 hrs followed by OGD addition and measured after 1 hr by ELISA method; type: functional, cell-based; details: dose 10-40 µM, time 7.0 hrs
[27] = test system: HT-22; experiment: Upregulation of Nrf2 mRNA level in OGD/R induced mouse HT-22 cells at 1 to 10 uM by qRT-PCR analysis; type: functional, cell-based; details: dose 1-10 µM
[28] = test system: HT-22; experiment: Upregulation of Nrf2 protein level in OGD/R induced mouse HT-22 cells at 1 to 10 uM by Western blot analysis; type: functional, cell-based; details: dose 1-10 µM

Cc1ccc(C(=O)NCCc2c[nH]c3ccc(N(C)C)cc23)c(O)c1
Activity [1]: Active
Activity [2]: Active
Activity [3]: Active
Activity [4]: Active
Activity [5]: Active
Activity [6]: Active
Activity [7]: Dose-Dependent Effect
Activity [8]: Active
Activity [9]: Active
Activity [10]: Active
Activity [11]: Active
Activity [12]: inactive
Activity [13]: Dose-Dependent Effect
Activity [14]: Dose-Dependent Effect
Activity [15]: Active
Activity [16]: Active
Activity [17]: Active
Activity [18]: Active
Activity [19]: Active
Activity [20]: inactive
Activity [21]: Dose-Dependent Effect
Activity [22]: Active
Activity [23]: Active
Activity [24]: Active
Activity [25]: Active
Activity [26]: Dose-Dependent Effect
Activity [27]: Active
Activity [28]: Active
